Data taken from ChEMBL document CHEMBL3992490, “Synthesis, spectroscopic properties and photodynamic activity of two cationic BODIPY derivatives with application in the photoinactivation of microorganisms” (Eur J Med Chem, 2017).
Activity calls are given as the source filed them. No cut-off for these calls is given here.

How the values were obtained:
Candida albicans [1] = assay: Anti-fungal activity against Candida albicans PC31 assessed as reduction in cell survival at 5 uM irradiated with visible light for 30 mins in presence of 10 mM potassium iodide by UV-visible spectroscopic method; type: functional
[2] = In vitro photodynamic activity in DMF/10% water assessed as reactive oxygen species production by measuring photo-oxidation rate of L-tryptophan after irradiation by absorption spectra analysis
[3] = Ratio of rate constant for induction of singlet oxygen production in DMF assessed as photodegradation rate of DPBF to rate constant for induction of reactive oxygen species production in DMF assessed as photodegradation rate of L-tryptophan
[4] = In vitro photodynamic activity in DMF assessed as reactive oxygen species production by measuring photo-oxidation rate of L-tryptophan after irradiation by absorption spectra analysis
[5] = In vitro photodynamic activity in DMF assessed as singlet oxygen production by measuring photodegradation rate of DPBF after irradiation by absorption spectra analysis
[6] = In vitro photodynamic activity in DMF/5% water assessed as reactive oxygen species production by measuring photo-oxidation rate of L-tryptophan after irradiation in presence of DABCO by absorption spectra analysis
Escherichia coli [7] = assay: Dark toxicity against Escherichia coli EC7 assessed as cell viability at 5 uM measured after 30 mins by UV-visible spectroscopic method; details: 0.5 h
[8] = In vitro photodynamic activity in DMF/10% water assessed as reactive oxygen species production by measuring photo-oxidation rate of L-tryptophan after irradiation in presence of 50 mM potassium iodide by absorption spectra analysis
[9] = In vitro photodynamic activity in DMF/5% water assessed as iodine production at 1 uM irradiated with visible light for 5 to 30 mins under argon condition in presence of 10 mM potassium iodide by UV-visible spectra analysis
Escherichia coli [10] = assay: Antibacterial activity against Escherichia coli EC7 assessed as reduction in cell survival at 5 uM irradiated with visible light for 15 mins in presence of 10 mM potassium iodide by UV-visible spectroscopic method; type: functional
[11] = In vitro photodynamic activity in DMF/5% water assessed as reactive oxygen species production by measuring photo-oxidation rate of L-tryptophan after irradiation in presence of D-mannitol by absorption spectra analysis
[12] = In vitro photodynamic activity in DMF assessed as singlet oxygen production by measuring decrease in DPBF level after irradiation by absorption spectra analysis; details: TDE = time-dependent effect
Staphylococcus aureus [13] = assay: Antibacterial activity against Staphylococcus aureus ATCC 25923 assessed as reduction in cell survival at 1 uM irradiated with visible light for 5 mins in presence of 10 mM potassium iodide by UV-visible spectroscopic method; type: functional
Candida albicans [14] = assay: Anti-fungal activity against Candida albicans PC31 assessed as reduction in cell survival at 5 uM irradiated with visible light for 30 mins by UV-visible spectroscopic method; type: functional
[15] = In vitro photodynamic activity in DMF/5% water assessed as singlet oxygen production by measuring photo-oxidation rate of DPBF after irradiation by absorption spectra analysis
Candida albicans [16] = assay: Dark toxicity against Candida albicans PC31 assessed as cell viability at 5 uM in presence of 10 mM potassium iodide measured after 30 mins by UV-visible spectroscopic method; details: 0.5 h
[17] = In vitro photodynamic activity in DMF/5% water assessed as singlet oxygen production by measuring photo-oxidation rate of DPBF after irradiation in presence of 50 mM potassium iodide by absorption spectra analysis
[18] = In vitro photodynamic activity in DMF/5% water assessed as singlet oxygen production by measuring photo-oxidation rate of DPBF after irradiation in presence of 10 mM potassium iodide by absorption spectra analysis
Candida albicans [19] = assay: Dark toxicity against Candida albicans PC31 assessed as cell viability at 5 uM measured after 30 mins by UV-visible spectroscopic method; details: 0.5 h
Staphylococcus aureus [20] = assay: Antibacterial activity against Staphylococcus aureus ATCC 25923 assessed as reduction in cell survival at 1 uM irradiated with visible light for 5 mins by UV-visible spectroscopic method; type: functional
Staphylococcus aureus [21] = assay: Dark toxicity against Staphylococcus aureus ATCC 25923 assessed as cell viability at 1 uM in presence of 10 mM potassium iodide measured after 30 mins by UV-visible spectroscopic method; details: 0.5 h
[22] = In vitro photodynamic activity in DMF/5% water assessed as reactive oxygen species production by measuring photo-oxidation rate of L-tryptophan after irradiation by absorption spectra analysis
Escherichia coli [23] = assay: Dark toxicity against Escherichia coli EC7 assessed as cell viability at 5 uM in presence of 10 mM potassium iodide measured after 30 mins by UV-visible spectroscopic method; details: 0.5 h
[24] = In vitro photodynamic activity in DMF/5% water assessed as iodine production at 1 uM under dark condition in presence of 10 mM potassium iodide by UV-visible spectra analysis
[25] = In vitro photodynamic activity in n-heptane/0.1 M AOT/water micelles assessed as singlet oxygen production by measuring photodegradation rate of DPBF after irradiation by absorption spectra analysis
Staphylococcus aureus [26] = assay: Dark toxicity against Staphylococcus aureus ATCC 25923 assessed as cell viability at 1 uM measured after 30 mins by UV-visible spectroscopic method; details: 0.5 h
[27] = In vitro photodynamic activity in DMF/5% water assessed as iodine production at 1 uM irradiated with visible light for 5 to 30 mins under aerobic condition in presence of 10 mM potassium iodide by UV-visible spectra analysis
Escherichia coli [28] = assay: Antibacterial activity against Escherichia coli EC7 assessed as reduction in cell survival at 5 uM irradiated with visible light for 15 mins by UV-visible spectroscopic method; type: functional

Structure (SMILES)	Activity (Candida albicans [1])	K [2] [×10⁻⁵ /s]	Ratio [3]	K [4] [×10⁻⁴ /s]	K [5] [×10⁻⁵ /s]	K [6] [×10⁻⁵ /s]	Activity (Escherichia coli [7])	K [8] [×10⁻⁵ /s]	Activity [9]	Activity (Escherichia coli [10])	K [11] [×10⁻⁵ /s]	Activity [12]	Activity (Staphylococcus aureus [13])	Activity (Candida albicans [14]) [deltalog10CFU/ml]	K [15]	Activity (Candida albicans [16])	K [17]	K [18]	Activity (Candida albicans [19])	Activity (Staphylococcus aureus [20]) [deltalog10CFU/ml]	also measured
CC1=CC(C)=[N+]2C1=C(c1ccc([N+](C)(C)C)cc1)c1c(C)cc(C)n1[B-]2(F)F	Active	2.13	3.2	3.06	9.51	2.98	Non-Toxic	4.42	inactive	Active	1.41	Tde	Active	3.7	1.8 ×10⁻⁴ /s	Non-Toxic	1.02 ×10⁻⁴ /s	1.58 ×10⁻⁴ /s	Non-Toxic	>5	Activity (Staphylococcus aureus [21]): Non-Toxic; K [22]: 4.75 ×10⁻⁵ /s; Activity (Escherichia coli [23]): Non-Toxic; Activity [24]: inactive; K [25]: 1.95 ×10⁻⁴ /s; Activity (Staphylococcus aureus [26]): Non-Toxic; Activity [27]: Active; Activity (Escherichia coli [28]): 2.5 deltalog10CFU/ml
C[N+](C)(C)CCCOc1ccc(C2=C3C=CC=[N+]3[B-](F)(F)n3cccc32)cc1	Active	2.79	8.3	3.44	4.15	3	Non-Toxic	9.55	inactive	Active	1.56	Tde	Active	0.9	5.81 ×10⁻⁵ /s	Non-Toxic	0.64 ×10⁻⁵ /s	2.79 ×10⁻⁵ /s	Non-Toxic	>5	Activity (Staphylococcus aureus [21]): Non-Toxic; K [22]: 7.86 ×10⁻⁵ /s; Activity (Escherichia coli [23]): Non-Toxic; Activity [24]: inactive; K [25]: 1.25 ×10⁻⁴ /s; Activity (Staphylococcus aureus [26]): Non-Toxic; Activity [27]: Active; Activity (Escherichia coli [28]): 2.5 deltalog10CFU/ml
